Measured values taken from ChEMBL document CHEMBL1153692, “Inactivation of HIV-1 protease by a tripeptidyl epoxide” (Bioorg Med Chem Lett, 1992).

Experiments:
[1] = target: Human immunodeficiency virus type 1 protease (Human immunodeficiency virus 1) (UniProt Q72874); test: Maximal inactivation rate of compound on HIV protease
[2] = target: Human immunodeficiency virus type 1 protease (Human immunodeficiency virus 1) (UniProt Q72874); test: Half maximal inactivation rate of compound on HIV protease
[3] = target: Human immunodeficiency virus type 1 protease (Human immunodeficiency virus 1) (UniProt Q72874); test: Maximal inactivation rate of compound on protease of Human immunodeficiency virus-1 (HIV-I) was determined
[4] = target: Human immunodeficiency virus type 1 protease (Human immunodeficiency virus 1) (UniProt Q72874); test: Concentration of compound for half maximal inactivation rate on protease of Human immunodeficiency virus-1 (HIV-I) was determined

K [1] [min⁻¹]	K [2] [mM]	K [3] [min⁻¹]	K [4] [µM]	SMILES
0.004	11	–	–	O=[N+]([O-])c1ccc(OCC2CO2)cc1 (centres undefined)
–	–	0.31	20	CC(C)C[C@@H]1O[C@@H]1[C@H](Cc1ccccc1)NC(=O)C(C)NC(Cc1ccccc1)C(=O)C(=O)OCc1ccccc1 (some centres undefined)
